We go through 29 compounds from ChEMBL document CHEMBL1201862, “PubChem BioAssay data set” (2004).

SMILES strings stand for the structures. Active and inactive are the calls of the source.

For assay [1], the target named is T1, Replicative DNA helicase DnaB (Mycobacterium tuberculosis, UniProt P9WMR3).
T1 sequence (P9WMR3 whole entry): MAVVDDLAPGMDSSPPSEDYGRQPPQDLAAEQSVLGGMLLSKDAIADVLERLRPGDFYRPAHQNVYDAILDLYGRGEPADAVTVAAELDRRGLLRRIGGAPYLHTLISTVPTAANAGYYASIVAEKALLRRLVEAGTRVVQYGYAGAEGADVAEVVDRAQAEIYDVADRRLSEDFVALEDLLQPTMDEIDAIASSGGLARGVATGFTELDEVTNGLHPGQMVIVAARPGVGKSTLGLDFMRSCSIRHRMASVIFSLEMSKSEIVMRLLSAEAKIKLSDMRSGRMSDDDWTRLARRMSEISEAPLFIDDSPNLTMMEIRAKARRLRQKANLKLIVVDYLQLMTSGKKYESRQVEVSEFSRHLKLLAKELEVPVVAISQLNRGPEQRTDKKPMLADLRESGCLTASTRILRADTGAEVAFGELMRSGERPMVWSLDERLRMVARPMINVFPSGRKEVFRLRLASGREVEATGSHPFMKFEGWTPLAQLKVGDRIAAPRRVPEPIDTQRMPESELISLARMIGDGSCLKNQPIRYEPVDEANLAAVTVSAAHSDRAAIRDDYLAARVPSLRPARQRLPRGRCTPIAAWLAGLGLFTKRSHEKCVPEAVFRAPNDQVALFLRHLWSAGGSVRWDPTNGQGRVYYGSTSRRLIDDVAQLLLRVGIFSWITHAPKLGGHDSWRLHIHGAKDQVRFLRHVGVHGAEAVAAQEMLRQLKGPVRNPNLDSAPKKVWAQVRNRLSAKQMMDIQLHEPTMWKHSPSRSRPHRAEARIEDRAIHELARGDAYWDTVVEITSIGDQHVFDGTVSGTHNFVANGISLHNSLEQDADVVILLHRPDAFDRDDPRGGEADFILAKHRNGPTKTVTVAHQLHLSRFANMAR
Kind of assay: DnaB intein splicing inhibitors, dose response, biochemical, cell-free fluorescence (AID 449749). The class given is functional.

The target in another assay is T2, Protein RecA (Mycobacterium tuberculosis, UniProt P9WHJ3).
T2 sequence (P9WHJ3 whole entry): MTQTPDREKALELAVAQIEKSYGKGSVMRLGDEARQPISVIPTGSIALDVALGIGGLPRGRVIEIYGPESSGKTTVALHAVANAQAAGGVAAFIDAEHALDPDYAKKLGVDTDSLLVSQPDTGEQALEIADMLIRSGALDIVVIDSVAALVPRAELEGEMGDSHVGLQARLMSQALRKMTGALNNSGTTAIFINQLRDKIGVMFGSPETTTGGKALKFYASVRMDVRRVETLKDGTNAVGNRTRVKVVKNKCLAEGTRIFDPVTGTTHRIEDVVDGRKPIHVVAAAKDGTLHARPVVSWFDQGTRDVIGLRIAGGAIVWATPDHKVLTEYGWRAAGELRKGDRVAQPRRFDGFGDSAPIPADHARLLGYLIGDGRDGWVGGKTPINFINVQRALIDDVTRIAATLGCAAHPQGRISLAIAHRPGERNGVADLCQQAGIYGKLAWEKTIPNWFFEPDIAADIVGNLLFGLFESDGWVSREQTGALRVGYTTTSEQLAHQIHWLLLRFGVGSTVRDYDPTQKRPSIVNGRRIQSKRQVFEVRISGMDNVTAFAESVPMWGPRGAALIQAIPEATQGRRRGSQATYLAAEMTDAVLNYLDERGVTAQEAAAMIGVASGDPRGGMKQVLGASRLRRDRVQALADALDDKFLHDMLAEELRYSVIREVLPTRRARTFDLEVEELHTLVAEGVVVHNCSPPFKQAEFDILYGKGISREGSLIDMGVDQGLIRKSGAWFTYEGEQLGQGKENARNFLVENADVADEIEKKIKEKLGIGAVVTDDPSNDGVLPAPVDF
Kind of assay: Fluorescence Cell-Free Homogeneous Dose Retest to Identify Inhibitors of RecA-Intein Splicing Activity. [Related pubchem assays (depositor defined):AID2097, AID2223, AID489010, AID492950]. The class given is functional.

The subject of assay [2] is Streptococcus sp. 'group A'. Kind of assay: growth inhibition of control SK(-) GAS strain, dose response, counter-screen for streptokinase expression inhibitor project, luminescence, kanamycin, BacTiterGlo, confirmation (AID 1900). Format: functional, organism-based.
The target of a further assay is T3, Streptokinase A (Streptococcus pyogenes serotype M1, UniProt P10520).
T3 sequence (P10520 whole entry): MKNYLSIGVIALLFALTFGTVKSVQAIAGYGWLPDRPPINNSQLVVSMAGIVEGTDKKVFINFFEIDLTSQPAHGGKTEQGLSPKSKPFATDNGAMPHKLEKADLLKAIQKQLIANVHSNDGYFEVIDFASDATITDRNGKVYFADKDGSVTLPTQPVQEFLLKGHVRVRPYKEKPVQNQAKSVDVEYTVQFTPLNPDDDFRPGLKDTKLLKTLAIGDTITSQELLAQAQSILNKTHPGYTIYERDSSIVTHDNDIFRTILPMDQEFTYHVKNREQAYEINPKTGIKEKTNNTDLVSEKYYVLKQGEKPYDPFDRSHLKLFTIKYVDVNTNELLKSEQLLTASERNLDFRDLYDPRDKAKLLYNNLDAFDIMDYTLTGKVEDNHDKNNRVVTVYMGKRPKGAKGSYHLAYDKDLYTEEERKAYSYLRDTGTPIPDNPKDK
Kind of assay: S. pyogenes streptokinase expression inhibitors, potency, dose response, plasminogen activation absorbance, OD405 (AID 1914).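 Also: secreted streptokinase activity via plasminogen activation per viability signal from cell pellet.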 The class given is functional, Streptococcus pyogenes M1 GAS.

The subject of another assay is Streptococcus. Kind of assay: Group A Streptococcus viability loss, dose response, counter-screen for streptokinase expression inhibitor project, luminescence, BacTiterGlo (AID 1915).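 Also: potency for reduction of bacterial viability or growth.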 Format: functional, organism-based.
Assay [3] can be described thus: inhibitors of firefly luciferase expression or activity, dose response, H4 neuroglioma cells, luminescence (AID 1990). Format: functional, cell-based.
A short description of assay [4]: Luminescence Cell-Based Dose Response HTS to Identify Inhibitors of 5'UTR Stem-Loop Driven Prion Protein mRNA Translation in H4 Neuroglioblastoma Cells. [Related pubchem assays: 1827 (Project Summary), 1813 (Primary HTS)]. The class given is functional.
A short description of assay [5]: inhibitors of SNCA 5'UTR-driven reporter translation, confirmation, H4 neuroglioma cells, luminescence (AID 1988). The class given is functional, cell-based.
Assay [6] in a line: HEp-2 cell cytotoxicity, dose response, cytotoxicity control for RSV inhibitor project, HTS (AID 2410). Format: functional. The settings on record: human respiratory syncytial virus.
The target of another assay is Large T antigen (Simian virus 40, UniProt P03070). The class given is functional, Betapolyomavirus macacae.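 Also: Confirmatory-stage PubChem screen for compounds that inhibit SV40 T antigen.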
Sequence of Large T antigen (P03070 whole entry): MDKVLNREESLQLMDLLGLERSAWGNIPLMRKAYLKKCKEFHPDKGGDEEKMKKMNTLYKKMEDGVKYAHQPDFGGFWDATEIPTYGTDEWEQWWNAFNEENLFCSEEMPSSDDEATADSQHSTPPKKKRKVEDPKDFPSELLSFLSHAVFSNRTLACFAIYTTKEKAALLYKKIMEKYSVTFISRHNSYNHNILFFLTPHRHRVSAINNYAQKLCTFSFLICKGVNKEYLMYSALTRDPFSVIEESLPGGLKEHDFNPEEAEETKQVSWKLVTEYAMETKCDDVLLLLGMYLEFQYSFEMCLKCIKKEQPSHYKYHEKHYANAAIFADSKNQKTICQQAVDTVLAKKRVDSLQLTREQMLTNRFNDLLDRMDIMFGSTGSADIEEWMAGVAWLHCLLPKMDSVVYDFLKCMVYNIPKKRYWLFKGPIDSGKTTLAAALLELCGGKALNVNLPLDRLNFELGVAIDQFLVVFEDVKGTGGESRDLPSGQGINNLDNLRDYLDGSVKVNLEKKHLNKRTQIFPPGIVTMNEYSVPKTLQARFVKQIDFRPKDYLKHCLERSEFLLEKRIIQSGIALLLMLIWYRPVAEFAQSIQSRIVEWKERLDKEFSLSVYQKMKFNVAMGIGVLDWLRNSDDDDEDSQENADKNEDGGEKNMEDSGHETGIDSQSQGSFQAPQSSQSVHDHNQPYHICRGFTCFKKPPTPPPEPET
Another assay has as its target Cytochrome P450 2C19 (Homo sapiens, UniProt P33261). Kind of assay: Cytochrome panel assay with activity outcomes. Panel member name: p450-cyp2c19 Compounds with AC50 equal or less than 10 uM are considered active. The class given is functional.
For another assay, the target named is Cytochrome P450 2D6 (Homo sapiens, UniProt P10635).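 Also: CYP2D6 member of a cytochrome P450 panel assay.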
Sequence of Cytochrome P450 2D6 (P10635 whole entry): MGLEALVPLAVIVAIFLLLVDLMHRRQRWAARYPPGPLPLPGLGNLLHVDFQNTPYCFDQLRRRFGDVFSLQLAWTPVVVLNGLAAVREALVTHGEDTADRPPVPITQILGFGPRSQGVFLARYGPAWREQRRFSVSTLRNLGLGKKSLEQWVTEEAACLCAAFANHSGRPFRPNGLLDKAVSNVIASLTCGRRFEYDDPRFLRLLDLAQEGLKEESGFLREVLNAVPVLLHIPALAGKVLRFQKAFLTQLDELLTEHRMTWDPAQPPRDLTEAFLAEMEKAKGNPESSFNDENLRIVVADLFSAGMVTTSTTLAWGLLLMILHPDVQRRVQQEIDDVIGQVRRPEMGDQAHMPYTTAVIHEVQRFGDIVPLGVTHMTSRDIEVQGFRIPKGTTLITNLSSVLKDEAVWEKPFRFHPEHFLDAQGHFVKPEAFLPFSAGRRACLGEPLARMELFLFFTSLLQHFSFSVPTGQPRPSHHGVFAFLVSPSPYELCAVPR

Sequence of Cytochrome P450 2C19 (P33261 whole entry): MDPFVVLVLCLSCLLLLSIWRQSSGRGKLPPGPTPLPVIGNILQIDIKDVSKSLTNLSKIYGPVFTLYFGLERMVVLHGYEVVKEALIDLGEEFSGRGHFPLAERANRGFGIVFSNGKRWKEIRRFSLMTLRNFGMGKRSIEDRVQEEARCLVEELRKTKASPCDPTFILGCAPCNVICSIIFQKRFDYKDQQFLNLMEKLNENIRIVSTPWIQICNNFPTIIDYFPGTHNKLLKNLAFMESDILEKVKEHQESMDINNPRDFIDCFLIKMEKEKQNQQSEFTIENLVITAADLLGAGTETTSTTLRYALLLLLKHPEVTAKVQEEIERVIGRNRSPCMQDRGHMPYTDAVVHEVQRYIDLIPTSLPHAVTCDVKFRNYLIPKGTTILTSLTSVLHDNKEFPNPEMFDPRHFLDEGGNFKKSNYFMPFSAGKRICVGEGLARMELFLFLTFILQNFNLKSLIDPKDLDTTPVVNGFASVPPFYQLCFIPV

Take `Cc1ccc(NC(=O)CSc2ncc(-c3ccccc3)n2C(=O)c2ccccc2)cc1`: in assay [1], the AC50 is 2.56 µM (active). The EC50 at Protein RecA is 1.77 µM (active).
On to `COc1cccc(-c2cc(C(F)(F)F)nc(N3CCC(C)CC3)n2)c1`, for which the EC50 in assay [2] is 5.93 µM (active); at Streptokinase A, 97.6 µM (inconclusive); with Streptococcus, 13.2 µM (active).
For `O=C(Cc1csc(NC(=O)Nc2cccc(Cl)c2)n1)NCc1ccccn1` the same measures were 7.28 µM (active), > 150 µM (not active) and > 150 µM (not active).
Turning to `Nc1c(C(=O)NCc2ccc3c(c2)OCO3)nnn1CC(=O)Nc1ccc(Br)cc1`, the values for the concentration for a half-maximal effect (EC50) in assay [3], in [4] and in assay [5] were > 120 µM (not active), > 120 µM (not active) and 18.3 µM (active), respectively.
For the compound `COc1cc2c(cc1OC)C1(Nc3c-2c(Cc2ccccc2)nn3-c2ccccc2)C(=O)Nc2ccccc21` (stereo not drawn), the CC50 in assay [6] was > 50 µM (active). Also, in [1], the AC50 was > 380 µM (inactive). The EC50 on Protein RecA was > 380 µM (inactive).
Turning to `CCCOc1ccc(Cc2c(Cl)nc(SC)nc2OC)cc1`, the values for the EC50 at Streptokinase A and in the assay on Streptococcus were 57.2 µM (active) and > 150 µM (not active), respectively.
As to `Cc1ccc(NC(=O)c2ccc(S(=O)(=O)N3CCC(C)CC3)cc2)cc1`, the EC50 is > 120 µM (not active) in assay [3], 38.7 µM (active) in assay [4] and 12 µM (active) in assay [5].
For the compound `CC(/C=C1\SC(=S)N(NC(=O)c2cccc(O)c2)C1=O)=C\c1ccccc1`, the AC50 in assay [1] is 15 µM (active). Moreover, the concentration for a half-maximal effect (EC50) at Protein RecA was 25.2 µM (active).
Regarding `CCOC(=O)c1c(C)n[nH]c1NCc1ccccc1`, the EC50 is 26 µM (active) in assay [3], > 120 µM (not active) in assay [4] and > 120 µM (not active) in assay [5].
Turning to `Cc1cc(C)nc(SCc2cc(=O)c(OC(=O)c3ccc(S(=O)(=O)N4CCCC4)cc3)co2)n1`, at Large T antigen, the IC50 was 37.3 µM (active).
`COc1ccc(Br)cc1S(=O)(=O)Nc1nnc[nH]1`: the EC50 at Streptokinase A is recorded as > 150 µM (not active).
Consider `CNc1ncncc1-c1ccccc1C(F)(F)F`, for which the half-maximal activity concentration (AC50) on Cytochrome P450 2C19 and on Cytochrome P450 2D6 was 39.8 µM (inconclusive) in each case.
Take `CC1Cc2ccccc2N1C(=O)Cn1c(=O)cc(O)c2ccccc21` (stereo not drawn): the concentration at half-maximal activity (AC50) at Cytochrome P450 2C19 was 22.4 µM (inconclusive); at Cytochrome P450 2D6 it was 39.8 µM (inconclusive).
Regarding `O=C(Nc1ccn(Cc2c(F)c(F)cc(F)c2F)n1)c1ccc(COc2ccc(Cl)cc2Cl)o1`, the concentration for a half-maximal effect (EC50) in [2] was 36.3 µM (active); on Streptokinase A it was > 150 µM (not active); in the assay with Streptococcus, > 150 µM (not active).
Take `CCOC(=O)c1c(C)c(C(=O)Nc2ccc(N(C)C)cc2)c(C)n1CC`: at Large T antigen, the 50% inhibitory concentration (IC50) is 15.1 µM (active).
Take `Cc1nc2c(c(N3CCOCC3)n1)OCC(=O)N2`: the EC50 was 42.6 µM (active) in assay [3], > 120 µM (not active) in [4] and 20.7 µM (active) in [5].
The like results for `C=C(C)CN1CC[C@]23c4c5ccc(O)c4O[C@H]2c2[nH]c4ccccc4c2C[C@@]3(O)C1C5` were, in that order, 13.7 µM (active), 109 µM (active) and 13.3 µM (active).
As for `CCCc1nn(C)c2c1C(c1ccncc1)C(C#N)=C(N)O2` (stereo not drawn), the AC50 in assay [1] is 9.7 µM (active). Also, the EC50 at Protein RecA was 3.79 µM (active).
For the compound `Cc1nn(-c2ccccc2)c2c1C1(C(=O)N(C(C)C)c3ccccc31)C(C#N)=C(N)O2` (stereo not drawn), the concentration at half-maximal activity (AC50) in [1] was 4.5 µM (active). Moreover, the EC50 on Protein RecA is 2.88 µM (active).
For `COC(=O)c1sc(-c2cccs2)cc1NC(=O)/C=C/C(=O)O` the same measures were 82.9 µM (active) and 15.2 µM (active).
The like results for `Cc1ccc(S(=O)(=O)N[C@@H](CCCCN)C(=O)CCl)cc1` were, in that order, > 120 µM (inactive) and 12.6 µM (active).
The like results for `COc1ccc(N=C(S)NC(NC(=O)CCl)C(Cl)(Cl)Cl)c([N+](=O)[O-])c1` (stereo not drawn) were, in that order, 28.5 µM (active) and 3.31 µM (active).
Consider `CN(C)c1ccc(NC(=O)CN2CCN(c3ccc(F)cc3)CC2)cc1`, for which the IC50 on Large T antigen is 5.83 µM (active).
For `NNc1nnc(S)n1N`, in assay [1], the AC50 was > 380 µM (inactive). Also, on Protein RecA, the half-maximal effective concentration (EC50) was 86.4 µM (active).
For the compound `Cc1cccc(NCCC#N)c1`, the EC50 in assay [3], in assay [4] and in [5] was > 120 µM (not active) in each case.
With `CN(C)S(=O)(=O)c1ccc(Cl)c(-c2nnc3n2CCCCC3)c1`, the 50% effective concentration (EC50) in assay [3], in assay [4] and in [5] was > 120 µM (not active) in each case.
For the compound `O=C(Nc1ccc(O)cc1)/C(=C/c1ccco1)NC(=O)c1ccccc1`, the IC50 at Large T antigen was 11 µM (active).
In the case of `COc1cccc(-n2c(=O)c3ccccc3n3c(S)nnc23)c1`, at Large T antigen, the IC50 is 19.1 µM (active).
Consider `CCOC(=O)c1c(NC(=O)CSc2nnc(-c3c[nH]c4ccccc34)n2CCOC)sc2c1CCCC2`, for which the concentration at half-maximal activity (AC50) in [1] is 20.2 µM (active). For the same compound, the EC50 on Protein RecA was > 380 µM (inactive).
